In patent publication US20150366890A1, “COMPOSITIONS AND METHODS FOR TREATING FUNGAL INFECTIONS” (TRUSTEES OF BOSTON UNIVERSITY, priority 2013, published 2015):
Where two headings read alike, the source gives them in different places.

Key:
Assay type in all cases: cell-based
[1] = test system: S. cerevisiae single-deletion yeast strains; assay: High-throughput 96-well screen of AF sensitivity of single-gene knockouts (CFU at start and after 8 hours)
Experimental: To identify genes critical to AF action, the AF sensitivity of single-gene knockouts identified through the common transcriptional analysis were identified. In the first pass-through, 56 testable genes were identified. This set was later expanded to include targets identified through phenotypic analysis and metabolomic profiling, for a total of 84 target genes (Table 2). The initial 56 targets were tested using a rapid high-throughput 96-well assay with AMB and MCZ to identify single-gene knockouts with elevated resistance to AFs (Table 2). Knockouts that were more resistant to at least one of the AFs were tested individually using the 24-well colony forming (CF) assay. Target genes selected after the initial 56 strains were assayed individually using the 24-well CF assay.
The first 56 S. cerevisiae strains were acquired from the deletion library and stored in 96-well plates in replicates of three. To start the assay, the plates were defrosted and 10 μl of stored cells were inoculated into 100 μl of fresh synthetic dextrose complete (SDC) media for 16 hours. These overnight cultures were diluted into a fresh 96-well plate with 100 μl of SDC to achieve an OD600 of approximately 0.2. Colony forming units (CFU) in each well were measured at the start of the assay and after 8 hours of incubation. The AF susceptibility of each strain was compared to that of wildtype. Strains with significant susceptibility differences from wildtype were assayed in 0.5 ml of SDC media using the 24-well plate CF assay described above.

[2] = test system: S. cerevisiae wildtype and deletion strains
S. cerevisiae = assay: Mitochondrial activity by MitoTracker Red fluorescence; settings: drug added to glucose-incubated (SC, 2% glucose) S. cerevisiae
Experimental: It was next sought to assess the mitochondrial activity of AF-treated fungal cells. Yhe MitoTracker Red dye, which enters the mitochondrial matrix by utilizing the proton motive force and thus labels metabolically active mitochondria in viable cells was used (Arita et al., 2006; Tomas et al., 2011). Exponential phase S. cerevisiae were incubated in glucose-free synthetic complete (SC) media for 30 min and then switched to SC containing 2% glucose or non-fermentable acetate for 1.5 hours.
(§1) Overnight yeast cultures were diluted into the indicated media and grown to an OD600 of 0.2, at which point the AFs were added. Colony forming units (CFU) were measured by plating six serial dilutions onto YPD agar plates. Cells treated with MCZ were washed before serial dilution to stop growth inhibition associated with high concentrations of MCZ. CFU were counted after three days of incubation on agar plates. When indicated, thiourea (Fluka) was added 30 min prior to the addition of AFs. HPF (10 μM) (Invitrogen) and Mito Tracker (1 μM) (Invitrogen) dyes were added to PBS-washed cells at the indicated time points and incubated for 30 min prior to flow cytometry measurements, which were taken on the FACSCalibur (Becton-Dickinson). All experiments described in this section were conducted in 0.5 ml of SDC in 24-well plates incubated at 900 rpm and 37° C. for C. albicans and 30° C. and 300 rpm for S. cerevisiae. TUNEL assays were conducted as previously described (Ribeiro et al., 2006) and are described in detail in the TUNEL section of the Experimental Procedures.

[3] = test system: C. albicans wildtype and DNA repair mutants; assay: Fungicidal killing, CFU assay; settings: C. albicans rad50/rad50 and rad52/rad52, 3 hours of drug exposure
Experimental: Overnight yeast cultures were diluted into the indicated media and grown to an OD600 of 0.2, at which point the AFs were added. Colony forming units (CFU) were measured by plating six serial dilutions onto YPD agar plates.
as §1

[4] = S. cerevisiae PAB103, SDH2 deletion
[5] = S. cerevisiae PAB107, NDE1 deletion
[6] = S. cerevisiae PAB112, MNE1 deletion
[7] = S. cerevisiae PAB113, FUM1 deletion
[8] = S. cerevisiae PAB114, TPK2 deletion
[9] = S. cerevisiae PAB119, CIT2 deletion
[10] = S. cerevisiae PAB121, SDH1 deletion
[11] = S. cerevisiae PAB122, TPK3 deletion
[12] = S. cerevisiae PAB124, TPK1 deletion
[13] = S. cerevisiae PAB132, CIT3 deletion
[14] = S. cerevisiae PAB135, NDI1 deletion
[15] = S. cerevisiae PAB145, CIT1 deletion

In the case of Clc1ccc(COC(Cn2ccnc2)c2ccc(Cl)cc2Cl)c(Cl)c1 (stereo not drawn) [MCZ, miconazole], the “96 Well Screen, AF susceptibility vs wildtype” value (shortened to “96 Well Screen … vs wildtype”) ([1]; S. cerevisiae PAB101, WT) is reported as “Normal”, the “96 Well Screen … vs wildtype” value ([1]; S. cerevisiae PAB102, HSP104 deletion) is reported as “Normal” and the “96 Well Screen … vs wildtype” value [1, 4] is reported as “Resistant (″Resistant″ or ″Sensitive″ indicate at least a 5-fold CFU difference from wildtype at the final time point)”. For the same compound, the “96 Well Screen … vs wildtype” value ([1]; S. cerevisiae PAB104, FRE8 deletion) was “Normal”, the “96 Well Screen … vs wildtype” value ([1]; S. cerevisiae PAB105, CHA4 deletion) was “Normal” and the “96 Well Screen … vs wildtype” value ([1]; S. cerevisiae PAB106, FMS1 deletion) was “Normal”. The “96 Well Screen … vs wildtype” value [1, 5] was “Resistant (″Resistant″ or ″Sensitive″ indicate at least a 5-fold CFU difference from wildtype at the final time point)”, the “96 Well Screen … vs wildtype” value ([1]; S. cerevisiae PAB108, ALD3 deletion) was “Normal” and the “96 Well Screen … vs wildtype” value ([1]; S. cerevisiae PAB109, GAD1 deletion) was “Normal”. The “96 Well Screen … vs wildtype” value ([1]; S. cerevisiae PAB110, PGM3 deletion) was “Normal”, the “96 Well Screen … vs wildtype” value ([1]; S. cerevisiae PAB111, PYK2 deletion) was “Resistant (″Resistant″ or ″Sensitive″ indicate at least a 5-fold CFU difference from wildtype at the final time point)” and the “96 Well Screen … vs wildtype” value [1, 6] was “Normal”. For the same compound, the “96 Well Screen … vs wildtype” value [1, 7] was “Resistant (″Resistant″ or ″Sensitive″ indicate at least a 5-fold CFU difference from wildtype at the final time point)”, the “96 Well Screen … vs wildtype” value [1, 8] was “Normal” and the “96 Well Screen … vs wildtype” value ([1]; S. cerevisiae PAB115, ATG29 deletion) was “Normal”. The “96 Well Screen … vs wildtype” value ([1]; S. cerevisiae PAB116, ISU1 deletion) was “Normal”, the “96 Well Screen … vs wildtype” value ([1]; S. cerevisiae PAB117, CYC7 deletion) was “Normal” and the “96 Well Screen … vs wildtype” value ([1]; S. cerevisiae PAB118, ARN1 deletion) was “Normal”. The “96 Well Screen … vs wildtype” value [1, 9] was “Resistant (″Resistant″ or ″Sensitive″ indicate at least a 5-fold CFU difference from wildtype at the final time point)”, the “96 Well Screen … vs wildtype” value ([1]; S. cerevisiae PAB120, HSP30 deletion) was “Resistant (″Resistant″ or ″Sensitive″ indicate at least a 5-fold CFU difference from wildtype at the final time point)” and the “96 Well Screen … vs wildtype” value [1, 10] was “Resistant (″Resistant″ or ″Sensitive″ indicate at least a 5-fold CFU difference from wildtype at the final time point)”. For the same compound, the “96 Well Screen … vs wildtype” value [1, 11] was “Resistant (″Resistant″ or ″Sensitive″ indicate at least a 5-fold CFU difference from wildtype at the final time point)”, the “96 Well Screen … vs wildtype” value ([1]; S. cerevisiae PAB123, ISU2 deletion) was “Normal” and the “96 Well Screen … vs wildtype” value [1, 12] was “Normal”. The “96 Well Screen … vs wildtype” value ([1]; S. cerevisiae PAB125, MID2 deletion) was “Normal”, the “96 Well Screen … vs wildtype” value ([1]; S. cerevisiae PAB126, SSK1 deletion) was “Normal” and the “96 Well Screen … vs wildtype” value ([1]; S. cerevisiae PAB127, HSP42 deletion) was “Normal”. For the same compound, the “96 Well Screen … vs wildtype” value ([1]; S. cerevisiae PAB128, PIG1 deletion) was “Normal”, the “96 Well Screen … vs wildtype” value ([1]; S. cerevisiae PAB130, UGA1 deletion) was “Normal” and the “96 Well Screen … vs wildtype” value ([1]; S. cerevisiae PAB131, MTL1 deletion) was “Normal”. The “96 Well Screen … vs wildtype” value [1, 13] was “Resistant (″Resistant″ or ″Sensitive″ indicate at least a 5-fold CFU difference from wildtype at the final time point)”, the “96 Well Screen … vs wildtype” value ([1]; S. cerevisiae PAB133, ZWF1 deletion) was “Normal” and the “96 Well Screen … vs wildtype” value ([1]; S. cerevisiae PAB134, SUM1 deletion) was “Normal”. The “96 Well Screen … vs wildtype” value [1, 14] was “Normal”, the “96 Well Screen … vs wildtype” value ([1]; S. cerevisiae PAB136, PGM2 deletion) was “Resistant (″Resistant″ or ″Sensitive″ indicate at least a 5-fold CFU difference from wildtype at the final time point)” and the “96 Well Screen … vs wildtype” value ([1]; S. cerevisiae PAB137, HFD1 deletion) was “Normal”. For the same compound, the “96 Well Screen … vs wildtype” value ([1]; S. cerevisiae PAB138, PUF2 deletion) was “Normal”, the “96 Well Screen … vs wildtype” value ([1]; S. cerevisiae PAB139, TDH1 deletion) was “Normal” and the “96 Well Screen … vs wildtype” value ([1]; S. cerevisiae PAB140, GUD1 deletion) was “Sensitive (″Resistant″ or ″Sensitive″ indicate at least a 5-fold CFU difference from wildtype at the final time point)”. The “96 Well Screen … vs wildtype” value ([1]; S. cerevisiae PAB141, ATG15 deletion) was “Normal”, the “96 Well Screen … vs wildtype” value ([1]; S. cerevisiae PAB142, TDH2 deletion) was “Normal” and the “96 Well Screen … vs wildtype” value ([1]; S. cerevisiae PAB143, ATP1 deletion) was “Normal”. The “96 Well Screen … vs wildtype” value ([1]; S. cerevisiae PAB144, UGA2 deletion) was “Normal”, the “96 Well Screen … vs wildtype” value [1, 15] was “Resistant (″Resistant″ or ″Sensitive″ indicate at least a 5-fold CFU difference from wildtype at the final time point)” and the “96 Well Screen … vs wildtype” value ([1]; S. cerevisiae PAB146, SOLI deletion) was “Normal”. For the same compound, the “96 Well Screen … vs wildtype” value ([1]; S. cerevisiae PAB147, PAN6 deletion) was “Normal”, the “96 Well Screen … vs wildtype” value ([1]; S. cerevisiae PAB148, SOL4 deletion) was “Normal” and the “96 Well Screen … vs wildtype” value ([1]; S. cerevisiae PAB149, YAK1 deletion) was “Sensitive (″Resistant″ or ″Sensitive″ indicate at least a 5-fold CFU difference from wildtype at the final time point)”. For the same compound, the “96 Well Screen … vs wildtype” value ([1]; S. cerevisiae PAB150, PBS2 deletion) was “Sensitive (″Resistant″ or ″Sensitive″ indicate at least a 5-fold CFU difference from wildtype at the final time point)”, the “96 Well Screen … vs wildtype” value ([1]; S. cerevisiae PAB152, GPD1 deletion) was “Sensitive (″Resistant″ or ″Sensitive″ indicate at least a 5-fold CFU difference from wildtype at the final time point)” and the “96 Well Screen … vs wildtype” value ([1]; S. cerevisiae PAB153, SHO1 deletion) was “Sensitive (″Resistant″ or ″Sensitive″ indicate at least a 5-fold CFU difference from wildtype at the final time point)”. For the same compound, the “96 Well Screen … vs wildtype” value ([1]; S. cerevisiae PAB154, FET3 deletion) was “Sensitive (″Resistant″ or ″Sensitive″ indicate at least a 5-fold CFU difference from wildtype at the final time point)”, the “96 Well Screen … vs wildtype” value ([1]; S. cerevisiae PAB155, FBP1 deletion) was “Sensitive (″Resistant″ or ″Sensitive″ indicate at least a 5-fold CFU difference from wildtype at the final time point)” and the “96 Well Screen … vs wildtype” value ([1]; S. cerevisiae PAB156, COX6 deletion) was “Sensitive (″Resistant″ or ″Sensitive″ indicate at least a 5-fold CFU difference from wildtype at the final time point)”. For the same compound, the “additive resistance on deleting the remaining citrate synthases in the cit3 background” value ([2]; S. cerevisiae CIT1/CIT2 deletions in cit3 background) was “not observed”, the “CFU (24-well colony forming assay), AF susceptibility vs wildtype” value (from here on “CFU … vs wildtype”) [2, 4] was “Resistant (″Resistant″ or ″Sensitive″ indicate at least a 5-fold CFU difference from wildtype at the final time point)” and the “CFU … vs wildtype” value [2, 5] was “Resistant (″Resistant″ or ″Sensitive″ indicate at least a 5-fold CFU difference from wildtype at the final time point)”. For the same compound, the “CFU … vs wildtype” value [2, 6] was “Resistant (″Resistant″ or ″Sensitive″ indicate at least a 5-fold CFU difference from wildtype at the final time point)”, the “CFU … vs wildtype” value [2, 7] was “Resistant (″Resistant″ or ″Sensitive″ indicate at least a 5-fold CFU difference from wildtype at the final time point)” and the “CFU … vs wildtype” value [2, 8] was “Resistant (″Resistant″ or ″Sensitive″ indicate at least a 5-fold CFU difference from wildtype at the final time point)”. For the same compound, the “CFU … vs wildtype” value [2, 9] was “Resistant (″Resistant″ or ″Sensitive″ indicate at least a 5-fold CFU difference from wildtype at the final time point)”, the “CFU … vs wildtype” value [2, 10] was “Resistant (″Resistant″ or ″Sensitive″ indicate at least a 5-fold CFU difference from wildtype at the final time point)” and the “CFU … vs wildtype” value [2, 11] was “Resistant (″Resistant″ or ″Sensitive″ indicate at least a 5-fold CFU difference from wildtype at the final time point)”. For the same compound, the “CFU … vs wildtype” value [2, 12] was “Resistant (″Resistant″ or ″Sensitive″ indicate at least a 5-fold CFU difference from wildtype at the final time point)”, the “CFU … vs wildtype” value [2, 13] was “Resistant (″Resistant″ or ″Sensitive″ indicate at least a 5-fold CFU difference from wildtype at the final time point)” and the “CFU … vs wildtype” value [2, 14] was “Resistant (″Resistant″ or ″Sensitive″ indicate at least a 5-fold CFU difference from wildtype at the final time point)”. For the same compound, the “CFU … vs wildtype” value [2, 15] was “Resistant (″Resistant″ or ″Sensitive″ indicate at least a 5-fold CFU difference from wildtype at the final time point)”, the “CFU … vs wildtype” value ([2]; S. cerevisiae PAB168, RAS1 deletion) was “Resistant (″Resistant″ or ″Sensitive″ indicate at least a 5-fold CFU difference from wildtype at the final time point)” and the “CFU … vs wildtype” value ([2]; S. cerevisiae PAB171, RAS2 deletion) was “Resistant (″Resistant″ or ″Sensitive″ indicate at least a 5-fold CFU difference from wildtype at the final time point)”. The “reduction of killing at 3 hours by thiourea” value ([2]; S. cerevisiae, 50 mM thiourea for 30 minutes prior to the addition of AF drugs) was roughly 10 fold, the “increase of MitoTracker fluorescence” value (S. cerevisiae) was 70 fold and the “susceptibility of DSBR mutants compared to wildtype” value [3] was “particularly susceptible”.
